Test system: NCI-H1341 complex spheroids, percent test/control
Experiment: Anticancer human tumor NCI-H1341 cell line growth inhibition [AhR];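 also: spheroids exposed to agents for seven days before readout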
Details: for IC50: curve of first compound; for viability, T/C: stronger effect = lower value
Method in brief: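 Spheroids combined tumor cells with HUVEC endothelial cells and human MSCs as stroma. AhR antagonists were paired with standard or investigational drugs, each dosed in half-log steps down from near clinical Cmax, or from 10 microM where Cmax was unknown.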

[1] = second compound 0.1 µM, first compound 0.0316 µM
[2] = second compound 0.1 µM, first compound 0.1 µM
[3] = second compound 0.1 µM, first compound 0.316 µM
[4] = second compound 0.1 µM, first compound 1 µM
[5] = second compound 0.1 µM, first compound 3.16 µM
[6] = second compound 0.1 µM, first compound 10 µM
[7] = second compound 0.316 µM, first compound 0.0316 µM
[8] = second compound 0.316 µM, first compound 0.1 µM
[9] = second compound 0.316 µM, first compound 0.316 µM
[10] = second compound 0.316 µM, first compound 1 µM
[11] = second compound 0.316 µM, first compound 3.16 µM
[12] = second compound 0.316 µM, first compound 10 µM
[13] = second compound 1 µM, first compound 0.0316 µM
[14] = second compound 1 µM, first compound 0.1 µM
[15] = second compound 1 µM, first compound 0.316 µM
[16] = second compound 1 µM, first compound 1 µM
[17] = second compound 1 µM, first compound 3.16 µM
[18] = second compound 1 µM, first compound 10 µM
[19] = second compound 3.16 µM, first compound 0.0316 µM
[20] = second compound 3.16 µM, first compound 0.1 µM
[21] = second compound 3.16 µM, first compound 0.316 µM
[22] = second compound 3.16 µM, first compound 1 µM
[23] = second compound 3.16 µM, first compound 3.16 µM
[24] = second compound 3.16 µM, first compound 10 µM
[25] = second compound 10 µM, first compound 0.0316 µM
[26] = second compound 10 µM, first compound 0.1 µM
[27] = second compound 10 µM, first compound 0.316 µM
[28] = second compound 10 µM, first compound 1 µM
[29] = second compound 10 µM, first compound 3.16 µM
[30] = second compound 10 µM, first compound 10 µM
[31] = second compound 0.1 µM, first compound 0.00316 µM
[32] = second compound 0.1 µM, first compound 0.01 µM
[33] = second compound 0.316 µM, first compound 0.00316 µM
[34] = second compound 0.316 µM, first compound 0.01 µM
[35] = second compound 1 µM, first compound 0.00316 µM
[36] = second compound 1 µM, first compound 0.01 µM
[37] = second compound 3.16 µM, first compound 0.00316 µM
[38] = second compound 3.16 µM, first compound 0.01 µM
[39] = second compound 10 µM, first compound 0.00316 µM
[40] = second compound 10 µM, first compound 0.01 µM

Row | Structure (SMILES) | IC50 (second compound 0.1 µM) [nM] | IC50 (second compound 0.316 µM) [nM] | IC50 (second compound 1 µM) [nM] | IC50 (second compound 3.16 µM) [nM] | IC50 (second compound 10 µM) [nM] | viability, T/C [1] [%] | viability, T/C [2] [%] | viability, T/C [3] [%] | viability, T/C [4] [%] | viability, T/C [7] [%] | viability, T/C [8] [%] | viability, T/C [9] [%] | viability, T/C [10] [%] | viability, T/C [13] [%] | viability, T/C [14] [%] | viability, T/C [15] [%] | viability, T/C [19] [%] | viability, T/C [20] [%] | viability, T/C [25] [%] | viability, T/C [26] [%] | further results
1 | CC(C)c1c(-c2ccccc2)nc2c(C#N)c[nH]n2c1=O + CC(CO)NC(=O)c1cc(-c2ccc(Cl)cc2)nn(-c2cnn(C)c2)c1=O | > 10000 | > 10000 | > 10000 | > 10000 | > 10000 | 85.4 | 89.8 | 78.7 | 82.6 | 86.8 | 95.6 | 93 | 100 | 96.1 | 91.2 | 95.6 | 84.5 | 99.2 | 86.2 | 74.4 | viability, T/C [5]: 101%; viability, T/C [6]: 88.4%; viability, T/C [11]: 86.5%; viability, T/C [12]: 73%; viability, T/C [16]: 94.5%; viability, T/C [17]: 76.2%; viability, T/C [18]: 69.5%; viability, T/C [21]: 106%; viability, T/C [22]: 81.8%; viability, T/C [23]: 64.5%; viability, T/C [24]: 79.1%; viability, T/C [27]: 74.2%; viability, T/C [28]: 71.6%; viability, T/C [29]: 70.9%; viability, T/C [30]: 59.8%
2 | COc1cc(C2c3cc4c(cc3C(OC3OC5COC(C)OC5C(O)C3O)C3COC(=O)C23)OCO4)cc(OC)c1O (stereo not given) + Cc1ccccc1N=Nc1ccc(NC(=O)c2ccnn2C)c(C)c1 | 834 | 10000 | 725 | 255 | < 31.6 | 92.2 | 82.4 | 56 | 46 | 71.3 | 79 | 57.1 | 50.4 | 90.1 | 88.5 | 58.2 | 66.6 | 68.4 | 45.2 | 46.6 | viability, T/C [5]: 46.3%; viability, T/C [6]: 53.4%; viability, T/C [11]: 54.6%; viability, T/C [12]: 48.9%; viability, T/C [16]: 50.2%; viability, T/C [17]: 44.7%; viability, T/C [18]: 44.5%; viability, T/C [21]: 43.3%; viability, T/C [22]: 43.5%; viability, T/C [23]: 46.9%; viability, T/C [24]: 50.2%; viability, T/C [27]: 57.1%; viability, T/C [28]: 44.6%; viability, T/C [29]: 40.1%; viability, T/C [30]: 49.9%
3 | Nc1ncn(C2CC(O)C(CO)O2)c(=O)n1 (stereo not given) + Cc1ccccc1N=Nc1ccc(NC(=O)c2ccnn2C)c(C)c1 | > 1000 | > 1000 | > 1000 | 763 | 135 | 84.1 | 63.7 | 59.6 | 51 | 100 | 79.2 | 53.8 | 51 | 81 | 60.2 | 63 | 68.5 | 61.8 | 61.8 | 49.9 | viability, T/C [31]: 102%; viability, T/C [32]: 103%; viability, T/C [33]: 102%; viability, T/C [34]: 101%; viability, T/C [35]: 100%; viability, T/C [36]: 97%; viability, T/C [16]: 54.5%; viability, T/C [37]: 81.4%; viability, T/C [38]: 77%; viability, T/C [21]: 53.1%; viability, T/C [22]: 49.7%; viability, T/C [39]: 70.6%; viability, T/C [40]: 54.9%; viability, T/C [27]: 47.8%; viability, T/C [28]: 42.1%

Further lines, with some results ahead:

Row | IC50 (second compound 0.1 µM) [nM] | IC50 (second compound 0.316 µM) [nM] | IC50 (second compound 1 µM) [nM] | IC50 (second compound 3.16 µM) [nM] | IC50 (second compound 10 µM) [nM] | Structure (SMILES) | viability, T/C [1] [%] | viability, T/C [2] [%] | viability, T/C [3] [%] | viability, T/C [4] [%] | viability, T/C [7] [%] | viability, T/C [8] [%] | viability, T/C [9] [%] | viability, T/C [10] [%] | viability, T/C [13] [%] | viability, T/C [14] [%] | viability, T/C [15] [%] | viability, T/C [19] [%] | viability, T/C [20] [%] | viability, T/C [25] [%] | viability, T/C [26] [%] | further results
4 | 1470 | 1140 | 1060 | 1220 | 691 | COc1ccc([C@@H](O)c2cc(-c3ncnc4cc(N5CCOCC5)ccc34)c(F)cc2Cl)nn1 + CC(CO)NC(=O)c1cc(-c2ccc(Cl)cc2)nn(-c2cnn(C)c2)c1=O | 101 | 89.7 | 82.5 | 61 | 88 | 93.7 | 72.7 | 48.8 | 89.7 | 83.8 | 76.6 | 79.6 | 84.8 | 90.2 | 75.8 | viability, T/C [5]: 29.6%; viability, T/C [6]: 8.94%; viability, T/C [11]: 32.7%; viability, T/C [12]: 8.73%; viability, T/C [16]: 48.2%; viability, T/C [17]: 28.2%; viability, T/C [18]: 8.67%; viability, T/C [21]: 85.9%; viability, T/C [22]: 52.7%; viability, T/C [23]: 24%; viability, T/C [24]: 7.24%; viability, T/C [27]: 68.2%; viability, T/C [28]: 41.5%; viability, T/C [29]: 22.1%; viability, T/C [30]: 7.39%
5 | 59.1 | > 100 | 67.1 | > 100 | 35.2 | CC[C@@]1(O)C(=O)OCc2c1cc1n(c2=O)Cc2cc3c(CN(C)C)c(O)ccc3nc2-1 + Cc1ccccc1N=Nc1ccc(NC(=O)c2ccnn2C)c(C)c1 | 51.8 | 47.5 | – | – | 49.9 | 52.9 | – | – | 57.2 | 45.8 | – | 45.2 | 52.9 | 49.6 | 48.6 | viability, T/C (second compound 0.1 µM, first compound 0.000316 µM): 103%; viability, T/C (second compound 0.1 µM, first compound 0.001 µM): 99.8%; viability, T/C [31]: 91.1%; viability, T/C [32]: 80.2%; viability, T/C (second compound 0.316 µM, first compound 0.000316 µM): 99.5%; viability, T/C (second compound 0.316 µM, first compound 0.001 µM): 83.4%; viability, T/C [33]: 97.7%; viability, T/C [34]: 74.6%; viability, T/C (second compound 1 µM, first compound 0.000316 µM): 97.4%; viability, T/C (second compound 1 µM, first compound 0.001 µM): 83.5%; viability, T/C [35]: 82.3%; viability, T/C [36]: 70.2%; viability, T/C (second compound 3.16 µM, first compound 0.000316 µM): 76.6%; viability, T/C (second compound 3.16 µM, first compound 0.001 µM): 94.7%; viability, T/C [37]: 65.5%; viability, T/C [38]: 64.2%; viability, T/C (second compound 10 µM, first compound 0.000316 µM): 46.4%; viability, T/C (second compound 10 µM, first compound 0.001 µM): 58%; viability, T/C [39]: 51.6%; viability, T/C [40]: 49.8%
6 | 92.8 | < 31.6 | 166 | < 31.6 | < 31.6 | COc1cccc2c1C(=O)c1c(O)c3c(c(O)c1C2=O)CC(O)(C(=O)CO)CC3OC1CC(N)C(O)C(C)O1 (stereo not given) + Cc1ccccc1N=Nc1ccc(NC(=O)c2ccnn2C)c(C)c1 | 59.7 | 44.6 | 37.9 | 18.2 | 50 | 48.6 | 38.2 | 24.2 | 58.8 | 51.5 | 44.6 | 50.1 | 48.2 | 40.9 | 41.2 | viability, T/C [5]: 1.96%; viability, T/C [6]: 4.55%; viability, T/C [11]: 2.31%; viability, T/C [12]: 4.21%; viability, T/C [16]: 16.5%; viability, T/C [17]: 2.36%; viability, T/C [18]: 4.45%; viability, T/C [21]: 41.1%; viability, T/C [22]: 16.2%; viability, T/C [23]: 3.35%; viability, T/C [24]: 5.99%; viability, T/C [27]: 35.9%; viability, T/C [28]: 14.4%; viability, T/C [29]: 5.03%; viability, T/C [30]: 4.31%

Reference: PubChem BioAssay AID1919014 (Molecular Pharmacology Branch, DTP, NCI, 2023)
